The subject of assay [1] is hippocampal proteins. In words: Hippocampal LC-MS/MS proteomics, chronic cocaine with single psychedelic administration. The assay is classed as in vivo, Male Wister rats. As to conditions: for differential expression of proteins in the control hippocampus: single i.p. dose (5-MeO-DMT 5 mg/kg, LSD 0.14 mg/kg, psilocybin 1 mg/kg, DOI 1 mg/kg) vs saline-saline, p<0.05, FC ±20%; for differential expression of proteins in the chronic cocaine hippocampus: single i.p. dose after 14 days cocaine 20 mg/kg (5-MeO-DMT 5, LSD 0.14, psilocybin 1, DOI 1 mg/kg) vs cocaine-saline; for reversal of chronic cocaine mediated proteomic changes in the hippocampus: single treatment (5-MeO-DMT 5, LSD 0.14, psilocybin 1, DOI 1 mg/kg i.p.). As for the experimental part: (§1) Animals were then randomly allocated to one of five groups and received a single i.p. injection of one of vehicle, 5 mg/kg 5-Meo-DMT, 0.14 mg/kg LSD, 1 mg/kg psilocybin, or 1 mg/kg DOI. On day 15, animals were euthanised and the hippocampus blunt dissected, snap frozen in liquid nitrogen and stored at −80° C. until further processing.
Protein from hippocampal tissue was processed for liquid chromatography tandem Mass Spectrometry (LC-MS/MS). Samples were run on a Thermo Scientific Q Exactive Mass Spectrometer connected to a Dionex Ultimate 3000 (RSLCnano) chromatography system in the UCD Conway Institute Core Mass Spectrometry Facility. Peptide and protein identification of MS/MS spectra were searched against the rat UniProt database using carbamidomethylation (C) as a fixed modification and acetylation (protein N terminus) and oxidation (M) as variable modifications with a false discovery rate filtering of 0.01. MaxQuant was using to generate label-free quantitative (LFQ) ion intensities and the Perseus statistical software contained in the MaxQuant package was used to analyse LFQ ion intensity. Statistical significance (p<0.05, FC±20%) of mean LFQ intensity between treatment groups was determined by two sample t-test. […] Networks were visualised using the stringApp (version 1.6.0) plugin for the Cytoscape software platform (version 3.8.2).

Assay [2] has as its system top 10 cocaine-dysregulated biological pathways in the hippocampus. In words: Biological pathway analysis (IPA) of transcriptomics, cocaine-dysregulated pathways. The assay is classed as in vivo, Male Wister rats. As to conditions: single treatment. As for the experimental part: as §1
Subsequent pathway analyses were done using Ingenuity Pathway Analysis (IPA). Analysis settings for IPA included the Ingenuity Knowledge Base (Genes Only), direct and indirect relationships, and endogenous chemicals of the previously filtered list of differentially expressed genes. IPA was filtered to only consider molecules where the species were human, rat, or mouse and the confidence can be experimentally observed. Canonical pathways were utilized in pathway analysis, where the spreadsheet organized the values of significance to −log(p-value) and the rate of regulation to the z-score. Negative z-score values indicate downregulation and positive values indicate upregulation.

The subject of assay [3] is primary hippocampal neurons. As to the kind of experiment: Antagonist pre-treatment studies of neuronal structural change, Sholl analysis. The assay is classed as cell-based, rat. As to conditions: for neuronal structural complexity (normalised AUC): meta-analysis. As to the method:
Primary hippocampal cultures were grown on 18 mm glass coverslips at a density of 1×10^6 cells as described. On 3 DIV all cells underwent a full medium change. […] On 4 DIV, all cells underwent a second full medium change. Cells in the combination group were treated with 2 μM 5-MeO-DMT for a further 24 hours with all other groups beginning a 24-hour treatment. After treatment was completed the cells were fixed and processed as described below.
Based on the findings with other psychedelic drugs that share structural and behavioral similarities to 5-MeO-DMT we selected ANA-12 (Sigma), an antagonist of TrkB, the BDNF receptor, and rapamycin (ThermoFischer) an antagonist of the mammalian target of rapamycin (mTOR). Due to the affinity and known behavioral change induced by 5-MeO-DMT at the 5-HT1AR and 5-HT2AR we assessed their contribution to structural changes mediated by 5-MeO-DMT. The receptors were antagonized with WAY-100635 maleate (Tocris) or Ketanserin (Axxora), respectively. For all antagonist studies the antagonist under investigation was added 15 mins prior to drug treatment. […] ANA-12, Ketanserin and rapamycin were dissolved in dimethyl sulfoxide (DMSO) with a final concentration of 0.01-0.04% for treatment. WAY100635 was dissolved in sterile dH2O.
After termination of drug treatment coverslips were processed and imaged as outlined for immunocytochemistry. In all instances NeuN antibody staining was used to visualize projections from the cell body. Images were analyzed using the Simple Neurite Tracer and Sholl analysis plug-ins for ImageJ Fiji. For the Sholl analysis circle radii of 2 μm increments were used. All images were taken and analyzed by an experimenter blinded to treatment conditions.
Statistical Analysis—Data are represented as mean±SEM. Statistical analyses were performed using GraphPad Prism (version 5). For analyses involving comparison of three or more groups, a one-way ANOVA with Bonferroni's post-hoc test was utilized where appropriate. No statistics were calculated for the individual points of the Sholl plots, instead, statistical analyses were performed on the aggregate data, the area under the curve (AUC) of the Sholl plot. Secondary measurements were the Nmax, the maximum number of intersections measured by the Sholl analysis, which indicated the number of projections emanating from a neuron and the average length of primary neurites originating from the cell soma.

The target in assay [4] is 5-HT2AR (Homo sapiens, UniProt P28223). As to conditions: metabolite of 5-MeO-DMT; cited from earlier work.
The mark [5] stands for this setting: ketanserin 100 μM treated groups relative to control.

Sequence of 5-HT2AR (P28223 whole entry): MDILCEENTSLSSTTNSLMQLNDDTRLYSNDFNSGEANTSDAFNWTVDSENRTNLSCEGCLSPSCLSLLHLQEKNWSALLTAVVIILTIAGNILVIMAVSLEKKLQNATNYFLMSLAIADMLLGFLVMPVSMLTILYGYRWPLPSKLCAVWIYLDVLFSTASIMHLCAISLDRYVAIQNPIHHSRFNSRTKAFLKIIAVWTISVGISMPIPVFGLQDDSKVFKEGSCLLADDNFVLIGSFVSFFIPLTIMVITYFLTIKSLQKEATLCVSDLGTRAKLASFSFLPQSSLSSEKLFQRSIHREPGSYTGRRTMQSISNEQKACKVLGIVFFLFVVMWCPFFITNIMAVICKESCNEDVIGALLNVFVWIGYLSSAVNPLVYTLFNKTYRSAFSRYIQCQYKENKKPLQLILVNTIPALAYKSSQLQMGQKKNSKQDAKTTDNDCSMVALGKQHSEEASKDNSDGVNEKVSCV

As to `CCN(CC)C(=O)[C@@H]1C=C2c3cccc4[nH]cc(c34)C[C@H]2N(C)C1` [LSD, Lysergic acid diethylamide], in assay [1], the “differential expression of proteins in the control hippocampus” value is 73 proteins, the “differential expression of proteins in the chronic cocaine hippocampus” value amounted to 57 proteins and the “reversal of chronic cocaine mediated proteomic changes in the hippocampus” value is 59%. Besides, in assay [2], the “number of the top 10 dysregulated pathways corrected” value worked out at 5 pathways and the “top 10 cocaine-dysregulated biological pathways corrected” value was 50%.
With `O=C(c1ccc(F)cc1)C1CCN(CCn2c(=O)[nH]c3ccccc3c2=O)CC1` [Ketanserin], in assay [3] (setting [5]), the average neurite length entry is recorded as “significantly decreased” and the “maximum number of intersections (Nmax)” value was “significantly reduced”. For the same compound, in assay [3] (ketanserin 100 μM, 15 min pre-treatment, all treatment groups), the “normalised AUC of the Sholl plot” value was “significantly reduced normalised AUC across all treatment groups”. Further, the “neuronal structural complexity (normalised AUC)” value in assay [3] (ketanserin pre-treatment) was “significantly reduced normalised AUC across all treatment groups”.
Regarding `COc1cc(CC(C)N)c(OC)cc1I` (stereo not drawn) [DOI, 2,5-Dimethoxy-4-iodoamphetamine], in assay [1], the “differential expression of proteins in the control hippocampus” value stood at 79 proteins, the “differential expression of proteins in the chronic cocaine hippocampus” value turned out to be 55 proteins and the “reversal of chronic cocaine mediated proteomic changes in the hippocampus” value came to 70%.
For the compound `COc1ccccc1N1CCN(CCN(C(=O)C2CCCCC2)c2ccccn2)CC1.O=C(O)/C=C\C(=O)O` [WAY100635, WAY-100635 maleate], in assay [3] (WAY100635 100 nM pre-treatment before 5-MeO-DMT), the average neurite length entry is listed as “prevented the 5-Meo-mediated increase in neurite length”. For the same compound, the “maximum number of intersections (Nmax)” value in assay [3] (WAY100635 100 nM treated groups relative to vehicle treated pairings) is listed as “significantly reduced”. Besides, in assay [3] (WAY100635 100 nM, 15 min pre-treatment before 5-MeO-DMT or cocaine), the “normalised AUC of the Sholl plot” value was “prevented the 5-Meo- and cocaine-induced increase in normalised AUC”. In addition, the “neuronal structural complexity (normalised AUC)” value in assay [3] (WAY100635 pre-treatment) is on record as “prevented the increase in complexity mediated by all treatments”.
`O=C(Nc1ccccc1C(=O)NC1CCCCNC1=O)c1cc2ccccc2s1` (stereo not drawn) [ANA-12]: the average neurite length entry in assay [3] (ANA-12 10 μM pre-treatment, 5-MeO-DMT-induced increase) is listed as “blocked”. In addition, the “AUC of the Sholl plot” value in assay [3] (ANA-12 10 μM, 15 min pre-treatment before 5-MeO-DMT, cocaine or combination) is listed as “prevented the 5-Meo-, cocaine- or combination-induced increase in AUC”; in assay [3] (control+ANA-12 vs control+vehicle (basal complexity)), “no difference in AUC”. Besides, the “maximum number of intersections (Nmax)” value in assay [3] (ANA-12 pre-treated combination group relative to vehicle pre-treated combination group) is “significantly reduced”. In addition, the “neuronal structural complexity (normalised AUC)” value in assay [3] (ANA-12 pre-treatment) is recorded as “prevented the 5-Meo-, cocaine- or combination-induced increase in complexity”.
Regarding `CN(C)CCc1c[nH]c2ccc(O)cc12` [bufotenine, 5-hydroxy,N,Ndimethyltryptamine], the “affinity for the 5-HT2AR relative to the parent compound” value in assay [4] is on record as “much higher affinity for the 5-HT2AR than the parent compound”.
For the compound `CN(C)CCc1c[nH]c2cccc(OP(=O)(O)O)c12` [psilocybin, Psilocybin], in assay [1], the “differential expression of proteins in the control hippocampus” value is given as 91 proteins, the “differential expression of proteins in the chronic cocaine hippocampus” value came to 45 proteins and the “reversal of chronic cocaine mediated proteomic changes in the hippocampus” value came to 74%. Further, in assay [2], the “number of the top 10 dysregulated pathways corrected” value is 7 pathways and the “top 10 cocaine-dysregulated biological pathways corrected” value was 70%.

The record behind these values is US20240299353A1, “COMPOSITIONS AND METHODS FOR TREATING […] 5-MEO-DMT” (Alvarius Pharmaceuticals Ltd., priority 2021, published 2024).
